# Read-outs that look alike come from different tables or passages of the source.
# Legend:
# Test in all cases: cells
# [1] = tested on: HCT116 cells treated with a GSK3β inhibitor; assay type: cell-based
# [2] = tested on: nuclear β-catenin in C2C12 cells; assay type: cell-based
# [3] = tested on: SNU-C1; assay type: cell-based
# [4] = tested on: HCT116; assay type: cell-based
# [5] = tested on: HeLa cells; assay type: cell-based; details: S2 Table; HeLa; 20 = no response at highest concentration; read-out: CellCycle G2/M
# [6] = tested on: SW480; assay type: cell-based
# [7] = tested on: endothelial tube formation in co-cultures of ECFCs and ADSCs treated with VEGF; assay type: cell-based, human; details: read-out: Anti-Angiogenesis
# [8] = tested on: INS-1E cells; assay type: cell-based, rat; details: read-out: Insulin Secretion
# [9] = tested on: RKO; assay type: cell-based
# [10] = tested on: HT-29; assay type: cell-based
# [11] = tested on: NCI-H716 cells; assay type: cell-based, Human
# [12] = tested on: DLD-1; assay type: cell-based
# [13] = tested on: Colo320; assay type: cell-based
# [14] = HCT116 pretreated with GSK3b inhibitor, read-out: GSK3b inh pretreated_Viability ATP HCT116
# [15] = S2 Table, module primary assay, 20 / 20.1 codes per legend, read-out: Wnt Pathway
# [16] = basal, SNU-C1, read-out: Basal_Viability ATP SNU-C1
# [17] = basal, HCT116, read-out: Basal_Viability ATP HCT116
# [18] = basal, SW480, read-out: Basal_Viability ATP SW480
# [19] = S2 Table, module primary assay, 20 / 20.1 codes per legend
# [20] = basal; RKO; read-out: Basal_Viability ATP RKO
# [21] = basal; HT-29; read-out: Basal_Viability ATP HT-29
# [22] = basal, DLD-1, read-out: Basal_Viability ATP DLD-1
# [23] = basal; Colo 320; read-out: Basal_Viability ATP Colo 320
smiles,measurement,setting,value
CCCCCCCCCCCC[N+](C)(C)Cc1ccccc1 [dimethyldodecylbenzylammonium],IC50,[1]; [14],> 20000 nM
same,EC50,[2]; [15],> 10000 nM
same,IC50,[3]; [16],20 nM
same,IC50,[4]; [17],1960 nM
same,EC50,[5],> 10000 nM
same,IC50,[6]; [18],7950 nM
same,IC50,[7],> 10000 nM
same,EC50,[8]; [19],> 10000 nM
same,IC50,[9]; [20],3070 nM
same,IC50,[10]; [21],465 nM
same,EC50,"[11]; S2 Table, module primary assay, 20 / 20.1 codes per legend, read-out: GLP 1 Secretion",> 10000 nM
same,IC50,[12]; [22],738 nM
same,IC50,[13]; [23],8990 nM
CN(C)c1ccc(C(=C2C=CC(=[N+](C)C)C=C2)c2ccccc2)cc1 [malachite green],IC50,"[1]; Homo sapiens, HCT-116, read-out: GSK3b inh pretreated_Viability ATP HCT116",9.83 nM
same,EC50,"[2]; Mus musculus, C2C12, read-out: Wnt Pathway",363 nM
same,IC50,"[3]; Homo sapiens, SNU-C1, read-out: Basal_Viability ATP SNU-C1",35.4 nM
same,IC50,"[4]; Homo sapiens, HCT-116, read-out: Basal_Viability ATP HCT116",17.9 nM
same,IC50,"[6]; Homo sapiens, SW480, read-out: Basal_Viability ATP SW480",9.22 nM
same,IC50,[7]; Homo sapiens,60.5 nM
same,EC50,"[8]; Rattus norvegicus, INS-1E",> 10000 nM
same,IC50,"[9]; Homo sapiens, RKO, read-out: Basal_Viability ATP RKO",118 nM
same,IC50,"[10]; Homo sapiens, HT-29, read-out: Basal_Viability ATP HT-29",9.82 nM
same,EC50,"[11]; Homo sapiens, NCI-H716, read-out: GLP 1 Secretion",> 10000 nM
same,IC50,"[12]; Homo sapiens, DLD-1, read-out: Basal_Viability ATP DLD-1",21.8 nM
same,IC50,"[13]; Homo sapiens, COLO 320, read-out: Basal_Viability ATP Colo 320",161 nM
"CC(=O)[O][Hg][c]1ccccc1 [Mercury, (acetato-o)phenyl-]",IC50,[1]; [14],360 nM
same,EC50,[2]; [15],> 10000 nM
same,IC50,[3]; [16],192 nM
same,IC50,[4]; [17],2800 nM
same,IC50,[6]; [18],543 nM
same,IC50,[7],530 nM
same,EC50,[8]; [19],> 10000 nM
same,IC50,[9]; [20],1200 nM
same,IC50,[10]; [21],799 nM
same,EC50,[11]; read-out: GLP 1 Secretion,713 nM
same,IC50,[12]; [22],736 nM
same,IC50,[13]; [23],1300 nM
O=C(Nc1ccc(Oc2ccc(Cl)cc2)c(Cl)c1)c1cc(I)cc(I)c1O [Rafoxanide],IC50,"[1]; Homo sapiens, HCT-116, GSK3b inhibitor pretreated, read-out: GSK3b inh pretreated_Viability ATP HCT116",66.7 nM
same,EC50,"[2]; Mus musculus, C2C12, IC50 / EC50, C2C12 beta-catenin translocation, read-out: Wnt Pathway",> 10000 nM
same,IC50,"[3]; Homo sapiens, SNU-C1, basal, read-out: Basal_Viability ATP SNU-C1",14.3 nM
same,IC50,"[4]; Homo sapiens, HCT-116, basal, read-out: Basal_Viability ATP HCT116",16.9 nM
same,IC50,"[6]; Homo sapiens, SW480, basal, read-out: Basal_Viability ATP SW480",10.8 nM
same,IC50,"[7]; Homo sapiens, IC50 / EC50, endothelial tube area, ADSC/ECFC co-culture",> 10000 nM
same,EC50,"[8]; Rattus norvegicus, IC50 / EC50, INS-1E",> 10000 nM
same,IC50,"[9]; Homo sapiens, RKO; read-out: Basal_Viability ATP RKO",30.3 nM
same,IC50,"[10]; Homo sapiens, HT-29; read-out: Basal_Viability ATP HT-29",9.5 nM
same,EC50,"[11]; Homo sapiens, IC50 / EC50, NCI-H716, read-out: GLP 1 Secretion",1300 nM
same,IC50,"[12]; Homo sapiens, DLD-1, basal, read-out: Basal_Viability ATP DLD-1",8.4 nM
same,IC50,"[13]; Homo sapiens, COLO 320; read-out: Basal_Viability ATP Colo 320",54 nM

# — article PMC4503722, “Novel Phenotypic Outcomes Identified for a Public Collection of Approved Drugs from a Publicly Accessible Panel of Assays” (PLoS ONE, 2015)
